Data on 27 compounds can be found in ChEMBL document CHEMBL5329153, “Is structural hybridization invoking new dimensions for antimalarial drug discovery research?” (RSC Med Chem, 2023).

Test [1] concerns Plasmodium falciparum. The test can be described thus: Antimalarial activity against Plasmodium falciparum 3D7 assessed as parasitic growth inhibition measured after 42 hrs by [3H]hypoxanthine incorporation assay. It counts as functional, organism-based.
In test [2] the test system is Plasmodium falciparum. In words: Antimalarial activity against Chloroquine sensitive Plasmodium falciparum 3D7 assessed as parasitic growth inhibition measured after 24 hrs. To be noted: 3D7, 24 h. It counts as functional, organism-based.
Test [3] concerns Plasmodium falciparum. The test can be described thus: Antimalarial activity against Chloroquine-pyrimethamine resistant Plasmodium falciparum W2 assessed as parasitic growth inhibition measured after 48 hrs. It counts as functional, organism-based. The following applies: W2, 48 h.
The test system of test [4] is Plasmodium falciparum. The test can be described thus: Antimalarial activity against Chloroquine-pyrimethamine sensitive Plasmodium falciparum D6 assessed as parasitic growth inhibition measured after 48 hrs. It counts as functional, organism-based. The following applies: D6, 48 h.
Test [5] deals with Plasmodium falciparum. In words: Antimalarial activity against Plasmodium falciparum assessed as parasitic growth inhibition. It counts as functional, organism-based.
Test [6] has as its system Plasmodium falciparum. The test can be described thus: Antimalarial activity against Chloroquine sensitive Plasmodium falciparum assessed as parasitic growth inhibition. It counts as functional, organism-based.
In test [7] the test system is Plasmodium falciparum. In words: Antimalarial activity against chloroquine sensitive Plasmodium falciparum 3D7 assessed as parasitic growth inhibition by SYBR Green I dye based assay. It counts as functional, organism-based.
For test [8], the system named is Plasmodium falciparum. The test can be described thus: Antimalarial activity against Plasmodium falciparum Dd2 assessed as parasitic growth inhibition. It counts as functional, organism-based.
Test [9] has as its system Plasmodium falciparum. The test can be described thus: Antimalarial activity against Plasmodium falciparum 3D7 assessed as parasitic growth inhibition. It counts as functional, organism-based.
In test [10] the test system is Plasmodium falciparum. In words: Antimalarial activity against Plasmodium falciparum 3D7 assessed as parasitic growth inhibition measured after 72 hrs by SYBR Green dye based assay. The following applies: 3D7, 72 h. It counts as functional, organism-based.
The test system of test [11] is Plasmodium falciparum. In words: Antimalarial activity against Plasmodium falciparum K1 assessed as parasitic growth inhibition. It counts as functional, organism-based.
For a further test, the system named is Hemozoin. In words: Inhibition of beta-hematin formation.
Test [12] concerns Plasmodium falciparum. The test can be described thus: Antimalarial activity against chloroquine resistant Plasmodium falciparum F32 assessed as parasitic growth inhibition measured after 48 hrs. It counts as functional, organism-based. The following applies: F32, 48 h.
In test [13] the test system is Plasmodium falciparum. The test can be described thus: Antimalarial activity against chloroquine resistant Plasmodium falciparum K1 assessed as parasitic growth inhibition measured after 48 hrs. It counts as functional, organism-based. The following applies: K1, 48 h.
Test [14] relates to Plasmodium falciparum. The test can be described thus: Antimalarial activity against mefloquine resistant Plasmodium falciparum K1 assessed as parasitic growth inhibition measured after 48 hrs. It counts as functional, organism-based. To be noted: K1, 48 h.
Test [15] relates to Plasmodium falciparum. The test can be described thus: Antimalarial activity against mefloquine resistant Plasmodium falciparum FcB1 assessed as parasitic growth inhibition measured after 48 hrs. To be noted: FcB1, 48 h. It counts as functional, organism-based.
The subject of test [16] is Plasmodium falciparum. In words: Antimalarial activity against chloroquine resistant Plasmodium falciparum FcB1 assessed as parasitic growth inhibition measured after 48 hrs. It counts as functional, organism-based. To be noted: FcB1, 48 h.
Test [17] relates to Plasmodium falciparum. In words: Antimalarial activity against mefloquine resistant Plasmodium falciparum Thai assessed as parasitic growth inhibition measured after 48 hrs. It counts as functional, organism-based.
The subject of test [18] is Plasmodium falciparum. The test can be described thus: Antimalarial activity against mefloquine resistant Plasmodium falciparum F32 assessed as parasitic growth inhibition measured after 48 hrs. It counts as functional, organism-based. To be noted: F32, 48 h.
Test [19] concerns Plasmodium falciparum. In words: Antimalarial activity against chloroquine resistant Plasmodium falciparum Thai assessed as parasitic growth inhibition measured after 48 hrs. It counts as functional, organism-based.
Test [20] relates to Plasmodium falciparum. In words: Antimalarial activity against Chloroquine sensitive Plasmodium falciparum 3D7 assessed as parasitic growth inhibition measured after 3 days by ELISA assay. It counts as functional, organism-based. To be noted: 3D7, 72 h. For orientation: ELISA stands for enzyme-linked immunosorbent assay.
For test [21], the system named is Plasmodium falciparum. The test can be described thus: Antimalarial activity against Chloroquine resistant Plasmodium falciparum Dd2 assessed as parasitic growth inhibition measured after 3 days by ELISA assay. The following applies: Dd2, 72 h. It counts as functional, organism-based.
In test [22] the test system is Plasmodium falciparum. The test can be described thus: Antimalarial activity against Chloroquine resistant Plasmodium falciparum assessed as parasitic growth inhibition by microscopic anlaysis. It counts as functional, organism-based.

SMILES strings stand for the structures. In brackets after ≈: the same amount, converted by molar mass.

The IC50 is the concentration that inhibits the measured activity by half. As for `COc1ccc2cc3[n+](cc2c1OCc1cn(-c2ccc(S(=O)(=O)Nc4ccc(F)cc4)cc2)nn1)CCc1cc2c(cc1-3)OCO2.[Cl-]`, in the test with Plasmodium falciparum [1], the half-inhibitory concentration (IC50) is 0.15 µg/mL.
By EC50 is commonly meant the concentration needed to bring the measured effect to its halfway point. In the case of `Cc1ccc(-c2nn(-c3nc4ccccc4s3)cc2/C=N\c2ccc(Cl)cc2)cc1`, the EC50 with Plasmodium falciparum [2] came out at 1980 nM.
Turning to `N=C(N=C(N)N)SCCNc1ccnc2cc(C(F)(F)F)ccc12`, the figures for the IC50 in the test on Plasmodium falciparum [3] and in the test with Plasmodium falciparum [4] were 2950 nM and 1860 nM, respectively.
The matching figures for `N=C(N=C(N)N)SCCNc1ccnc2cc(Cl)ccc12`: 3710 nM and 2250 nM.
Turning to `Cc1nc2ccccc2c(C)c1C(=O)NNC(=S)Nc1ccc(Cl)c(Cl)c1`, in the test on Plasmodium falciparum [5], the IC50 was 0.19 µg/mL (≈ 0.453 µM).
Regarding `CC1=C(C(=O)Nc2ccc(Br)cn2)C(c2cn(-c3ccccc3)nc2-c2ccc(C)cc2)NC(=O)N1` (centres undefined), the half-inhibitory concentration (IC50) with Plasmodium falciparum [6] is 0.08 µg/mL (≈ 0.147 µM).
As for `CCCCN1C(=O)c2ccc3c4c(ccc(c24)C1=O)C(=O)C(CCNc1c2ccc(Cl)cc2nc2ccc(OC)cc12)C3=O`, in the test with Plasmodium falciparum [7], the IC50 amounted to 3.89 nM.
Same read-out and setting: under `COc1ccc2nc3cc(Cl)ccc3c(NCC3C(=O)c4ccc5c6c(ccc(c46)C3=O)C(=O)N(CN(C)C)C5=O)c2c1` stands 4.33 nM.
For the compound `CCN(CC)CCCC(C)Nc1ccnc2cc(Cl)ccc12` (centres undefined) [CHLOROQUINE], the EC50 in the test with Plasmodium falciparum [8] worked out at 165 nM; in the test with Plasmodium falciparum [9], 12.7 nM; in the test on Plasmodium falciparum [10] it was 9.8 nM; in the test on Plasmodium falciparum [11], 303 nM. The same compound registered an IC50 in the test with Hemozoin of 180 nM.
With `CCNC(=S)NNC(=O)c1c(C)nc2ccccc2c1C`, the IC50 in the test on Plasmodium falciparum [5] turned out to be 0.15 µg/mL (≈ 0.496 µM).
For the compound `C[C@H]1C[C@@H]2C[C@@H]3CC[C@H]4OC(C(F)(F)F)=C(COCCOC(=O)CCC(=O)OC(c5cc(C(F)(F)F)nc6c(C(F)(F)F)cccc56)C5CCCCN5)[C@H](C1)[C@]24OO3` (some centres undefined), the 50% inhibitory concentration (IC50) with Plasmodium falciparum [12], in the test with Plasmodium falciparum [13], in the test with Plasmodium falciparum [14], with Plasmodium falciparum [15], in the test on Plasmodium falciparum [16] and in the test on Plasmodium falciparum [17] was 2.4 nM throughout. For the same compound, the 50% inhibitory concentration (IC50) in the test with Plasmodium falciparum [18] and in the test with Plasmodium falciparum [19] was 2.4 nM in each case.
In the test with Hemozoin, `COc1cc2c(cc1OC)CC(Nc1ccnc3cc(Cl)ccc13)C2` showed a 50% inhibitory concentration (IC50) of 390 nM.
As to `CC1=C(C(=O)Nc2ccccn2)C(c2cn(-c3ccccc3)nc2-c2ccc(F)cc2)NC(=O)N1` (centres undefined), in the test on Plasmodium falciparum [6], the IC50 came out at 0.03 µg/mL (≈ 0.064 µM).
As to `COc1cc(NC(C)CCCNC(=O)CCCC(=O)NO)c2ncccc2c1` (centres undefined), the results for the IC50 in the test on Plasmodium falciparum [20] and in the test on Plasmodium falciparum [21] were 400 nM and 1900 nM, respectively.
Consider `Cc1nc2ccccc2c(C)c1C(=O)NNC(=S)NC(C)(C)C`, for which the IC50 in the test with Plasmodium falciparum [5] was 0.25 µg/mL (≈ 0.757 µM).
Take `COc1ccc2cc3[n+](cc2c1OCc1cn(-c2ccc(S(=O)(=O)Nc4ccc(Cl)cc4)cc2)nn1)CCc1cc2c(cc1-3)OCO2.[Cl-]`: in the test on Plasmodium falciparum [1], the IC50 amounted to 0.1 µg/mL.
`Cc1nc2ccccc2c(C)c1C(=O)NNC(=S)Nc1ccc(Cl)cc1`: the IC50 in the test with Plasmodium falciparum [5] is 0.15 µg/mL (≈ 0.39 µM).
Consider `O=C(NNC(=S)Nc1c(F)cccc1F)c1cc(-c2ccccc2Br)nc2c(Cl)cc(C(F)(F)F)cc12`, for which the IC50 with Plasmodium falciparum [22] turned out to be 0.36 µg/mL.
Take `Cc1nc2ccccc2c(C)c1C(=O)NNC(N)=S`: in the test with Plasmodium falciparum [5], the IC50 came to 0.19 µg/mL (≈ 0.693 µM).
Regarding `COc1cc(NC(C)CCCN)c2ncccc2c1` (centres undefined) [PRIMAQUINE], the figures for the IC50 with Plasmodium falciparum [20] and in the test on Plasmodium falciparum [21] were 1500 nM and 4300 nM, respectively.
`COc1ccc(OC)c2c1CC(Nc1ccnc3cc(Cl)ccc13)C2` returned an IC50 with Hemozoin of 480 nM.
As to `O=C(NNC(=S)Nc1cc(Cl)cc(Cl)c1)c1cc(-c2ccc(F)cc2F)nc2cc(Cl)c(F)cc12`, the IC50 in the test with Plasmodium falciparum [22] stood at 0.17 µg/mL.
Consider `COc1cccc(NC(=S)NNC(=O)c2c(C)nc3ccccc3c2C)c1`, for which the IC50 with Plasmodium falciparum [5] amounted to 0.1 µg/mL (≈ 0.263 µM).
Regarding `CCCN1C(=O)c2ccc3c4c(ccc(c24)C1=O)C(=O)C(CNc1c2ccc(Cl)cc2nc2ccc(OC)cc12)C3=O`, in the test on Plasmodium falciparum [7], the IC50 is 3.65 nM.
`COc1cc(NC(C)CCCNC(=O)c2ccc(C(=O)NO)cc2)c2ncccc2c1` (centres undefined): the results for the IC50 in the test on Plasmodium falciparum [20] and in the test with Plasmodium falciparum [21] were 600 nM and 1200 nM, respectively.
Regarding `N=C(N=C(N)N)SCCCNc1ccnc2cc(Cl)ccc12`, the figures for the IC50 in the test on Plasmodium falciparum [3] and in the test on Plasmodium falciparum [4] were 2310 nM and 1560 nM, respectively.
`C[C@H]1[C@H](OC(=O)CCC(=O)Nc2cccc3ncnc(Nc4ccc(Cl)c(Cl)c4)c23)O[C@@H]2O[C@@]3(C)CC[C@H]4[C@H](C)CC[C@@H]1[C@@]24OO3`: in the test with Plasmodium falciparum [10], the EC50 came out at 1.4 nM.
